According to PMC12564639, “Discovery of a Novel Anticoagulant Cystine Knot Peptide from Spider Venom Gland Transcriptome” (International Journal of Molecular Sciences, 2025):
Peptide text beside a SMILES is read from it.

Experiments:
mouse tail bleeding = assay: Tail bleeding time; assay type: in vivo, C57BL/6J mice; settings: n = 6; for tail bleeding time: 10 min after administration, vehicle 89.8 s
Experimental: (§1) The C57BL/6J mice (male, 6–8 weeks old) were purchased from Beijing Vital River Laboratory Animal Technology Co., Ltd. (Beijing, China). All animal studies were performed under the approval of the Ethics Committee of the Laboratory Animal Welfare of the Kunming Institute of Zoology, Chinese Academy of Sciences (IACUC-RE-2025-03-010).
The mouse tail-bleeding assay was performed to evaluate the bleeding risk associated with GC38 treatment. Male C57BL/6J mice (6–8 weeks, n = 6 per group) were randomized to receive intravenous injection of PBS (negative control), GC38 (2 or 4 mg/kg in PBS), or heparin sodium (1000 U/kg, positive control). The assay was conducted 10 min after administration. Mice were anesthetized, and a 2 mm segment of the tail tip was surgically transected using a sterile scalpel. Immediately after the incision, the tail was immersed in prewarmed PBS (37 °C) to facilitate blood flow. Bleeding time was recorded from the moment of the incision until the complete cessation of bleeding (no blood flow for 60 s).

[1] = system: human plasma, intrinsic clotting cascade; assay: Activated partial thromboplastin time (APTT); assay type: biochemical; settings: GC38 10 μM; human plasma 20 μL, pre-incubation 5 min at 37 °C, APTT reagent 5 min, CaCl2; scattered light; mean, n = 3
Experimental: (§2) APTT and PT were measured with commercially available kits according to the manufacturer’s instructions. For APTT determination, 20 μL human plasma was pre-incubated with GC38 (0.1, 1, and 10 µM) at 37 °C for 5 min, and then 30 μL APTT reagent was added and incubated for another 5 min. Subsequently, 40 μL pre-warmed CaCl2 (37 °C) was added to initiate the intrinsic clotting cascade. The intensity of the scattered light was monitored until the signals reached saturation. For PT determination, 20 μL human plasma was pre-incubated with GC38 (0.1, 1, and 10 µM) at 37 °C for 5 min. Then, 75 μL PT reagent was added to initiate the extrinsic clotting cascade. The intensity of the scattered light was monitored until the signals reached saturation. The coagulation time (APTT or PT) was defined as the time point at which the scattered light signal reached the midpoint between the baseline and maximum amplitude. All concentrations were tested in triplicate. Results are shown as mean values, and the time at maximum reactive velocity was also reported.

[2] = system: plasma clotting (coagulation pathway); assay: Plasma recalcification time (PRT); assay type: biochemical; settings: fresh plasma, 10 min at 37 °C, n = 3
Experimental: Plasma recalcification time (PRT) was used to evaluate the effects of GC38 on the coagulation pathway. Fresh plasma was incubated with GC38 (0.1, 1, and 10 µM) for 10 min at 37 °C. After incubation, the plasma was mixed with an equal volume of 25 mM calcium chloride solution, and the timer was immediately started. The time required for plasma clot formation was recorded. The group treated with PBS served as the control. Each concentration was tested in triplicate, and the average value and PRT at maximum reactive velocity were reported.

[3] = system: human embryonic kidney cells (HEK293T); assay: Cytotoxicity (CCK-8), HEK293T; assay type: cell-based; settings: 24 h, n = 3
Experimental: (§3) The cytotoxicity of GC38 was evaluated in human embryonic kidney cells (HEK293T), human keratinocytes (HaCaT), and murine macrophage (RAW264.7) cell lines. The cells were from Kunming Cell Bank, Chinese Academy of Sciences. HEK293T and HaCaT cells were cultured in DMEM supplemented with 10% fetal bovine serum (FBS) and 1% penicillin-streptomycin, and RAW264.7 cells were maintained in RPMI 1640 containing 10% FBS and 1% penicillin–streptomycin, with all cell lines incubated at 37 °C under 5% CO2. For cytotoxicity assessment, cells were seeded at a density of 1 × 10^5 cells per well in 96-well plates and incubated for 12 h. […] After 24 h incubation, cell viability was determined using the CCK-8 assay (10 μL/well). Absorbance was measured at 450 nm using a multi-mode microplate reader (BioTek Synergy™ H1, Winooski, VT, USA). Untreated cells and cells treated with 10% DMSO served as negative and positive controls, respectively. Viability percentages were calculated relative to the untreated control. All experiments were conducted in triplicate, and data were expressed as mean ± SEM.

[4] = system: human plasma, extrinsic clotting cascade; assay: Prothrombin time (PT); assay type: biochemical; settings: GC38 0.1-10 μM; human plasma 20 μL, pre-incubation 5 min at 37 °C, PT reagent; scattered light; n = 3
Experimental: as §2

[5] = system: mouse red blood cells (RBCs); assay: Hemolysis assay; assay type: cell-based; settings: 50 μM; RBCs 1 × 10^8/mL in PBS, 37 °C, 30 min; absorbance 450 nm; versus 1% Triton X-100; n = 3
Experimental: The hemolytic activity of GC38 was assessed using mouse red blood cells (RBCs). Fresh […] blood was centrifuged at 1500 rpm for 5 min to isolate RBCs, followed by three washes with sterile PBS and resuspension in PBS with a density of 1 × 10^8 RBCs/mL. GC38 was diluted in PBS to concentrations ranging from 3.125 to 50 μM. For the assay, 100 µL of the RBC suspension was mixed with an equal volume of GC38 solution and incubated at 37 °C for 30 min. After incubation, the samples were centrifuged at 1500 rpm for 5 min to pellet intact RBCs. The absorbance of the supernatant was measured at 450 nm using a multi-mode microplate reader (BioTek Synergy™ H1, Winooski, VT, USA). PBS and 1% Triton X-100-treated groups served as negative and positive controls, respectively. The percentage of hemolysis was calculated by comparing the absorbance values of the samples to those of the controls. All concentrations underwent triplicate testing, with results presented as mean ± SEM.

[6] = system: human keratinocytes (HaCaT); assay: Cytotoxicity (CCK-8), HaCaT; assay type: cell-based; settings: 24 h, n = 3
Experimental: as §3

[7] = system: stasis-induced deep vein thrombosis in mice; assay: Stasis-induced deep vein thrombosis (DVT) model; assay type: in vivo, C57BL/6J mice
Experimental: as §1
Male C57BL/6J mice (6–8 weeks old, n = 10 per group) were randomized to receive intravenous injections of PBS (vehicle control), GC38 (2 or 4 mg/kg), or heparin sodium (1000 U/kg) for the establishment of stasis-induced DVT models. […] Briefly, mice were anesthetized, and the IVC was exposed through a midline abdominal incision. […] Finally, the abdominal wall was closed carefully. At 24 h post-ligation, the IVC was resected, and thrombus formation was quantified by measuring the weight of the thrombi (n = 5). HE staining analysis of thrombus sections was performed to evaluate the extent of thrombosis (n = 5).

[8] = 50 μM, serum-free medium, CCK-8, 450 nm, relative to untreated control

SMILES: CSCC[C@@H]1NC(=O)[C@H](CC(N)=O)NC(=O)CNC(=O)CNC(=O)[C@H](Cc2c[nH]cn2)NC(=O)[C@H](CCCNC(=N)N)NC(=O)CNC(=O)[C@@H]2CSSC[C@@H]3NC(=O)[C@H](CCCNC(=N)N)NC(=O)[C@H](C)NC(=O)CNC(=O)[C@H](CCCCN)NC(=O)CNC(=O)[C@H](CO)NC(=O)[C@@H](NC(=O)CN)CSSC[C@H](NC(=O)[C@H](CSSC[C@@H](C(=O)N[C@@H](CCC(=O)O)C(=O)N[C@@H](Cc4c[nH]c5ccccc45)C(=O)N[C@@H](CC(N)=O)C(=O)N[C@@H](Cc4c[nH]c5ccccc45)C(=O)N[C@@H](CCCCN)C(=O)N[C@H](C(=O)NCC(=O)O)[C@@H](C)O)NC(=O)[C@H](CO)NC(=O)[C@H](CCCCN)NC(=O)[C@H](Cc4ccc(O)cc4)NC1=O)NC(=O)[C@H](CCCCN)NC(=O)[C@H](CO)NC(=O)[C@@H]1CCCN1C(=O)[C@H](C)NC3=O)C(=O)N[C@@H](CO)C(=O)NCC(=O)N[C@@H](CC(C)C)C(=O)N[C@@H](CO)C(=O)N2 [GC38] (HELM PEPTIDE1{G.C.S.G.K.G.A.R.C.A.P.S.K.C.C.S.G.L.S.C.G.R.H.G.G.N.M.Y.K.S.C.E.W.N.W.K.T.G}$PEPTIDE1,PEPTIDE1,2:R3-15:R3|PEPTIDE1,PEPTIDE1,9:R3-20:R3|PEPTIDE1,PEPTIDE1,14:R3-31:R3$$$V2.0)
- tail bleeding time (mouse tail bleeding; GC38 2 mg/kg i.v.): 97.6 s
- tail bleeding time (mouse tail bleeding; GC38 4 mg/kg i.v.): 100.6 s
- tail bleeding time versus vehicle control (mouse tail bleeding; GC38 2 and 4 mg/kg i.v.): comparable to the vehicle control group
- APTT extension versus control [1]: 1.4 fold
- PRT clotting time versus negative control (time to Vmax) ([2]; GC38 10 μM, then 25 mM CaCl2, mean): 1.4 fold
- clotting time in plasma (PRT), dose response ([2]; GC38 0.1-10 μM, then equal volume 25 mM CaCl2): prolonged clotting time in plasma in a dose-responsive manner
- cell viability HEK293T [3, 8]: greater than 95%
- cytotoxicity HEK293T ([3]; 0.1–50 μM, CCK-8): negligible cytotoxicity
- prothrombin time (PT) effect [4]: no apparent effects on prothrombin time (PT)
- hemolytic activity [5]: below 3%
- cell viability HaCaT [6, 8]: greater than 95%
- cytotoxicity HaCaT ([6]; 0.1–50 μM, CCK-8): negligible cytotoxicity
- reduction of thrombus wet weight versus vehicle control ([7]; GC38 4 mg/kg i.v., 24 h after IVC ligation, n = 5 per group): 64.0%
- thrombus area (histology) ([7]; HE staining, IVC sections, 24 h after ligation, n = 5): decrease in thrombus area
